From patent US12007393B2, “Methods based on the detection of RAD51 foci in tumor cells” (Fundació Privada Institut D'Investigació Oncològica De Vall …, priority 2017, dated 2024) come the findings set out here.

The structures appear in SMILES notation. “Also recorded” adds a separate entry of the source.

For one experiment, the system named is RAD51 foci. Briefly: RAD51 nuclear foci by immunofluorescence in FFPE PDX tumors. Type of experiment: in vivo, mice. The method, then: (§1) The following primary antibodies were used for immunofluorescence: rabbit anti-RAD51 (Santa Cruz Biotechnology H-92, dilution 1:250), rabbit anti-RAD51 Ab from Cell Signalling Technologies (CST #8875, dilution 1:25 from a 83 μg/ml stock), rabbit anti-RAD51 Ab from Abcam (ab-133534, dilution 1:1000), mouse anti-Geminin (NovoCastra NCL-L, 1:100 in PDX samples, 1:60 in patient samples), rabbit anti-Geminin (ProteinTech 10802-1-AP, 1:400), mouse anti-BRCA1 (Santa Cruz Biotechnology D-9, 1:50 for C-term; or Abcam MS110, 1:200 for N-term), and mouse anti-γH2AX (Millipore JBW301, 1:200). The secondary antibodies used were: goat anti-rabbit Alexa fluor 568 (Invitrogen; 1:500), goat anti-mouse Alexa fluor 488 (Invitrogen; 1:500), goat anti-mouse Alexa fluor 568 (Invitrogen; 1:500) and goat anti-rabbit Alexa fluor 488 (Invitrogen; 1:500).
(§2) Thin tissue sections were deparaffinized with xylene and hydrated with decreasing concentrations of ethanol. […]
(§3) RAD51 was quantified by scoring: a) the percentage of tumor cells with RAD51 nuclear foci, b) the percentage of γH2AX foci positive cells with RAD51 foci, or c) the percentage of geminin positive cells with RAD51 foci, as indicated in the Figures. […] Optimally, one-hundred geminin or γH2AX foci-positive cells from at least 3 different and representative areas of each sample were analyzed. […]

Experiment [1] relates to patient-derived tumor xenografts (PDXs) of breast, ovarian and pancreatic cancer. Nature of the experiment: In vivo PDX sensitivity to PARPi (antitumor activity by RECIST on % tumor volume change). Further details: species or system mice. The protocol: Fresh tumor samples from patients with breast or high-grade serous ovarian cancer were prospectively collected for implantation into nude mice under protocols approved by Vall Hebron's institutional review board (IRB), Institut Curie or Institut Paoli-Calmettes. Experiments were conducted following the European Union's animal care directive (2010/63/EU) and were approved by the Ethical Committee of Animal Experimentation of the Vall d'Hebron Research Institute (Barcelona, Spain) or by the Ethical Committee of Animal Experimentation CEEA-51 (Evry, France). Fresh primary or metastatic human tumors were obtained from patients at time of surgery or biopsy and immediately implanted into the mammary fat pad (surgery samples) or the lower flank (metastatic samples) of 6-week-old female athymic HsdCpb:NMRI-Foxnlnu mice (Harlan Laboratories). Animals were continuously supplemented with 1 μM 17b-estradiol (Sigma-Aldrich) in their drinking water. Upon growth of the engrafted tumors, the model was perpetuated by serial transplantation onto the lower flank. In each passage, flash-frozen and formalin-fixed paraffin embedded (FFPE) samples were taken for genotyping and histological studies.
To evaluate the sensitivity to PARP inhibition, tumor-bearing mice were equally distributed into treatment groups of 5 to 10 mice with tumors ranging 70 to 300 mm3. Olaparib 50 mg/kg or 100 mg/kg, Niraparib 75 mg/kg or 50 mg/kg, or Veliparib 100 mg/kg were administered per gavage (p.o.) daily (in 10% v/v DMSO/10% w/v Kleptose [HP-β-CD]). Tumor growth was measured with caliper bi-weekly from first day of treatment to day 21 and every 7-10 days in the acquired resistance setting. To generate PDX models with acquired resistance to PARPi, olaparib treatment was maintained for up to 150 days in olaparib-sensitive tumors until individual tumors regrew. In all experiments, mouse weight was recorded twice weekly. The tumor volume was calculated as V=4π/3/Lx12, “L” being the largest diameter and “1” the smallest. Mice were euthanized when tumors reached 1500 mm3 or in case of severe weight loss, in accordance with institutional guidelines. The antitumor activity was determined by comparing tumor volume at 21 days to its baseline: % tumor volume change=(V21 days−Vinitial)/Vinitial×100. For olaparib-sensitive PDX, the best response was defined as the minimum value of % tumor volume change sustained for at least 10 days. To classify the antitumor response, the Response Evaluation Criteria In Solid Tumors (RECIST) criteria on the % tumor volume change was followed: CR (complete response), best response<−95%; PR (partial response), −95<best response<−30%; SD (stable disease), −30%<best response<+20%, PD (progressive disease), best response>+20%.

Another experiment relates to γH2AX foci. Nature of the experiment: γH2AX nuclear foci by immunofluorescence in FFPE PDX tumors. Format: in vivo, mice. The protocol:
as §1, §2, §3

Take `O=C(c1cc(Cc2n[nH]c(=O)c3ccccc23)ccc1F)N1CCN(C(=O)C2CC2)CC1` [olaparib]: the “percentage of RAD51 foci/geminin-positive cells (RAD51 score)” value in the experiment with RAD51 foci (olaparib-treated samples from resistant PDX models (FIG. 2C)) is recorded as “significantly increased”. In addition, in the experiment on RAD51 foci (treated vs vehicle, olaparib-resistant PDX models (FIG. 2A)), the “RAD51 foci formation, percentage of tumor cells with RAD51 nuclear foci” value is listed as “increased; also recorded: only significantly induced in the olaparib resistant PDX models”. Moreover, in experiment [1] (of 44 PDX models (39 BrC, 3 HGSOC/OvC, 2 PaC), p.o. daily, CR/PR/SD), the “number of PDX models in which treatment exhibited antitumor activity as assessed by RECIST” value is “ten”. Further, in experiment [1] (of 44 PDX models, CR: best response <-95% tumor volume change), the “number of PDX models with complete response (CR)” value was 6. In experiment [1] (of 44 PDX models, PD: best response >+20%), the “number of PDX models with progressive disease (PD), olaparib-resistant” value is listed as 34. For the same compound, the “number of PDX models with partial response (PR)” value in experiment [1] (of 44 PDX models, PR: -95<best response<-30%) stood at 2. Also, the “γH2AX foci formation, percentage of tumor cells with γH2AX nuclear foci” value with γH2AX foci (treated vs vehicle PDX tumors, sensitive and resistant groups (FIG. 2A)) is reported as “increased; also recorded: induces”. In addition, the “γH2AX foci formation in geminin-positive cells” value in the experiment with γH2AX foci (treated vs vehicle, both sensitive and resistant tumors (FIG. 2B)) is on record as “increased; also recorded: significantly increases”.
